Source: patent US6350737B1, “Platinum complex, its preparation and therapeutic application” (Pliva-Lachema, A.S., priority 1998, dated 2002)

What was measured:
[1] = test system: lines P 815 (mastocytoma) and L 1210 (lymphocyte leucaernia line); test: MTT test, mice tumor lines (line not stated for the carboplatin value); type: cell-based
Method: (§1) Cytostatic activity of compounds of the present invention has been tested in vitro on tumor lines. The MTT test was chosen for screening the effectivity of the respective compounds. The test is based on reaction of a tetrazolium salt with respirating mitochondria of living cells. The resulted insoluble formazan is solubilized and its amount is determined on a microplate reader. This method is being used as a standard one for evaluation of cytostatic effect of pharmaceutically active compounds (Tim Mosmann, Rapid colorimetric assay for cellular growth and survival, Application to proliferation and cytotoxicity assays, Journal of Immunological Methods, 65 (1983), 55-63). Inhibition constant (IC50) represents such a concentration of a substance which causes 50% supression of growth of a cell culture. This constant has been determined from a graph of dependence of MTT value (mitochondrial activity of cells) on the concentration of tested substance. A GraphPad Prism programme was used for determination of the constant from the measured values, whereby Boltzman sigmoid was used for constructing a curve from single experimental points. Chosen cell lines are standard lines used for routine screening of cytostatic effect of pharmacologically active compounds.
(§2) Within this example, lines P 815 (mastocytoma) and L 1210 (lymphocyte leucaernia line) were tested.

[2] = test system: lymfoblastic leucaemia line CEMt; test: MTT test, human tumor line CEMt; type: cell-based; conditions: read-out: Inhibition constant IC50
Method: (§3) The MTT test was chosen for screening the effectivity of the respective compounds. The test is based on reaction of a tetrazolium salt with respirating mitochondria of living cells. The resulted insoluble formazan is solubilized and its amount is determined on a microplate reader. […] Inhibition constant (IC50) represents such a concentration of a substance which causes 50% supression of growth of a cell culture. This constant has been determined from a graph of dependence of MTT value (mitochondrial activity of cells) on the concentration of tested substance. A GraphPad Prism programme was used for determination of the constant from the measured values, whereby Boltzman sigmoid was used for constructing a curve from single experimental points.
Comparation experiments were performed on lymfoblastic leucaemia line CEMt. The MTT test was used for evaluation of cytotoxic effect.
Vitality of cells was determined by a standard spectrophotometric MTT test based on reduction of 3-(4,5-dimethylthiazol-2-yl)-2,5-diphenyltetrazolium bromide by vital cells under formation of a formazane.

Ocular melanoma VUP = test: Cytotoxicity on ocular melanoma VUP; type: cell-based, human
Method: as §3

P 815 (mastocytoma) = test: MTT test, mice tumor line P 815; type: cell-based; conditions: P-815 line
Method: as §1, §2

[3] = test system: L 1210 (lymphocyte leucaernia line); test: MTT test, mice tumor line L 1210; type: cell-based; conditions: L-1210 line
Method: as §1, §2

[4] = test system: solid mammal adenocarcinoma MC 2111; test: Antitumor activity in vivo, single i.v. dose, survival; set-up: species or system Mice female DBA/1
Method: Mice female DBA/1 of body mass 22.9-25.8 g were used in this experiment. Tumors were developed by s.c. inoculation of 0.2 ml of a tumor homogenate diluted in 1:1 volume ratio with an isotonic glucose solution. Tested compounds were applied in a form of an isotonic water solution prepared immediately before application by dissolution of corresponding lyophilised product in water for injections and further by dilution with isotonic sodium chloride solution ad hoc according to the need, in volumes of 0.1-0.4 ml per 20 g of body mass of an animal, as apparent from the following table.

Compound	activity relative to LA-9 ([1]; IC50 comparison)	IC50 ([1]; line not specified, both in a free form or as a complex with cyclodextrin) [µM]	IC50 [2] [µM]	IC50 (Ocular melanoma VUP) [µM]	IC50 (P 815 (mastocytoma)) [µM]	IC50 [3] [µM]	sensibility in comparison with Carboplatin (Ocular melanoma VUP; IC50 comparison)	Survivors (% of control) ([4]; 12 mg/kg single i.v. dose)	Optimum dosage ([4]; animals used in the tests) [mg/kg]
N.N.O=C([O-])C1(C(=O)[O-])CCC1.[Pt+2] [Carboplatin, cis-diammine-/1,1-cyclobutanedicarboxylato/platinum(II) complex]	approximately hundred times less active	105	30.4	95					
N.N.[Cl][Pt][Cl] [Cisplatin, cis-diammine-dichloroplatinum(II) complex]			1.9						
O=C1[O][Pt]2([NH][C@@H]3CCCC[C@H]3[NH]2)[O]C1=O [Oxaliplatin]			4.8						
cis-(1-adamantylamine) amminedichloroplatinum (II) [LA-9]			0.36	9	1.1	1.5	approximately ten times higher sensibility	410 % of control	13 to 16
